For the test, the system named is Lassa virus (Josiah strain). The format is cell-based.

In the case of GWTFWTLSDSEGKDTPGGY [SEQ ID NO:31], the “inhibition of plaque formation by LasV” value is on record as “inhibited infection by LasV, but to a lesser extent”.
To NYSKYWYLNHTTTGR [SEQ ID NO:30] belongs “can inhibit plaque formation by LasV”.

The values above are taken from patent publication US7491793B2 (priority 2003, dated 2009).
